What was measured:
Details in all cases: 72 h
[1] = tested on: U2OS; assay: fractional viability (live cells / total cells); higher = less cell death
Method: (§1)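 U2OS::Nuc-mKate2 cells seeded in 96-well plates and treated with eight- to ten-point half-log or log dilutions of drug in the presence of 50 nM SYTOX Green. Live (mKate2+) and dead (SYTOX+) cells were counted by IncuCyte STACK live-cell microscopy at 72 h; biological triplicates. GR is the normalised growth-rate inhibition value (Hafner 2016; 1 = untreated growth, <0 = population shrinking). FV is live/(live+dead) cells, not normalised.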

[2] = tested on: U2OS; assay: normalized growth rate inhibition value (GR) relative to untreated cells (GR value (dimensionless, 1 = untreated growth)); higher = less growth inhibition
Method: as §1

[3] = tested on: U2OS; assay: GRmin (fitted minimal GR value at highest effect) (GR value (dimensionless)); higher = less efficacious
Method: (§2)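 U2OS cells treated with full dose titrations of drug; live and dead cells counted by STACK microscopy (mKate2 nuclei, SYTOX Green) at 72 h, biological triplicates. GR and FV dose responses were fitted with 4-parameter logistic models (GR lower bound -1). GRADE (0-100) is the rescaled angle of a linear fit of FV versus GR at doses with GR >= 0, giving the percentage of the response due to cell death.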

[4] = tested on: U2OS; assay: GR50 (concentration giving GR = 0.5)
Method: as §2

[5] = tested on: U2OS; assay: drug GRADE (percent of response due to cell death) (% (0-100)); higher = more death-driven response
Method: as §2

CCc1cncnc1N1CCN(Cc2nc3ccc(C(F)(F)F)cc3[nH]2)CC1
Details | fractional viability, [1] | normalized growth rate inhibition value, [2]
0.00100578 µM | 0.988 | 1.06
0.00317827 µM | 0.988 | 0.948
0.0100433 µM | 0.988 | 1.04
0.0317369 µM | 0.988 | 1.02
0.100289 µM | 0.988 | 0.896
0.316912 µM | 0.986 | 1
1.00144 µM | 0.992 | 0.842
3.16456 µM | 0.989 | 0.943
10 µM | 0.98 | 0.734

O=C(O)CCNc1cc(N2CCc3ccccc3CC2)nc(-c2ccccn2)n1 [GSKJ1]
Details | fractional viability, [1] | normalized growth rate inhibition value, [2]
0.01 µM | 0.979 | 1.03
0.0316 µM | 0.981 | 0.985
0.1 µM | 0.98 | 0.962
0.316 µM | 0.976 | 1.06
1 µM | 0.985 | 1.02
3.16 µM | 0.974 | 0.996
10 µM | 0.975 | 1.01
31.6 µM | 0.974 | 0.83

Details | GRmin
[3] | 0.339

CC(=O)c1c(C)c2cnc(Nc3ccc(N4CCNCC4)cn3)nc2n(C2CCCC2)c1=O [Palbociclib]
Details | GR50 [µM] | GRmin | drug GRADE
[3] | – | 0.176 | –
[4] | 1.15 | – | –
[5] | – | – | 3.13

Details | fractional viability, [1] | normalized growth rate inhibition value, [2]
0.000317827 µM | 0.992 | 1.08
0.00100433 µM | 0.992 | 0.975
0.00317369 µM | 0.99 | 0.904
0.0100289 µM | 0.989 | 0.841
0.0316912 µM | 0.989 | 0.721
0.100144 µM | 0.984 | 0.769
0.316456 µM | 0.988 | 0.639
1 µM | 0.987 | 0.525
3.16 µM | 0.972 | 0.398

CNC(=O)c1ccccc1Sc1ccc2c(/C=C/c3ccccn3)n[nH]c2c1 [Axitinib]
Details | fractional viability, [1] | normalized growth rate inhibition value, [2]
0.01 µM | 0.977 | 0.956
0.0316 µM | 0.978 | 0.956
0.1 µM | 0.97 | 0.887
0.316 µM | 0.972 | 0.994
1 µM | 0.956 | 0.822
3.16 µM | 0.788 | 0.223
10 µM | 0.949 | 0.733
31.6 µM | 0.91 | 0.643

Details | GRmin | drug GRADE
[3] | 0.534 | –
[5] | – | 32.1

C=CCNc1ncnc2ccc(Br)cc12 [SMER28]
Details | fractional viability, [1] | normalized growth rate inhibition value, [2]
0.01 µM | 0.977 | 1.03
0.0316 µM | 0.977 | 1.09
0.1 µM | 0.98 | 0.962
0.316 µM | 0.979 | 1.02
1 µM | 0.982 | 1.02
3.16 µM | 0.975 | 0.992
10 µM | 0.973 | 0.909
31.6 µM | 0.977 | 0.866

Details | GRmin
[3] | 0.864

CC1(C)CCC(c2ccc(Cl)cc2)=C(CN2CCN(c3ccc(C(=O)NS(=O)(=O)c4ccc(N[C@H](CCN5CCOCC5)CSc5ccccc5)c(S(=O)(=O)C(F)(F)F)c4)cc3)CC2)C1 [Navitoclax]
Details | fractional viability, [1] | normalized growth rate inhibition value, [2]
0.01 µM | 0.98 | 0.981
0.0316 µM | 0.983 | 1.04
0.1 µM | 0.978 | 0.941
0.316 µM | 0.978 | 1.02
1 µM | 0.978 | 0.95
3.16 µM | 0.972 | 0.94
10 µM | 0.947 | 0.841
31.6 µM | 0.887 | 0.891

Details | GRmin
[3] | 0.866

O=C1NC(=O)[C@@H](c2cn3c4c(cccc24)CCC3)[C@@H]1c1c[nH]c2ccccc12 [Tivantinib]
Details | GR50 [µM] | GRmin | drug GRADE
[3] | – | -0.31 | –
[4] | 0.169 | – | –
[5] | – | – | 42.8

Details | fractional viability, [1] | normalized growth rate inhibition value, [2]
0.00100578 µM | 0.99 | 0.95
0.00317827 µM | 0.991 | 1.03
0.0100433 µM | 0.986 | 0.977
0.0317369 µM | 0.988 | 0.86
0.100289 µM | 0.975 | 0.598
0.316912 µM | 0.844 | 0.299
1.00144 µM | 0.613 | 0.049
3.16456 µM | 0.683 | -0.107
10 µM | 0.481 | -0.3

Cn1nnc2c(C(N)=O)ncn2c1=O [Temozolamide]
Details | fractional viability, [1] | normalized growth rate inhibition value, [2]
0.01 µM | 0.982 | 0.992
0.0316 µM | 0.982 | 1.07
0.1 µM | 0.981 | 0.975
0.316 µM | 0.977 | 1.05
1 µM | 0.975 | 0.984
3.16 µM | 0.978 | 0.894
10 µM | 0.98 | 0.954
31.6 µM | 0.975 | 1.02

Details | GRmin
[3] | 0.955

CCOc1ccccc1-n1c(C(C)N2CCN(C(=O)COc3ccc(Cl)cc3)CC2)nc2ccccc2c1=O (stereo not given) [Erastin]
Details | GR50 [µM] | GRmin | drug GRADE
[3] | – | -0.351 | –
[4] | 4.14 | – | –
[5] | – | – | 44.7

Details | fractional viability, [1] | normalized growth rate inhibition value, [2]
0.01 µM | 0.977 | 0.987
0.0316 µM | 0.982 | 1
0.1 µM | 0.983 | 0.973
0.316 µM | 0.976 | 0.878
1 µM | 0.961 | 0.826
3.16 µM | 0.945 | 0.586
10 µM | 0.647 | 0.22
31.6 µM | 0.531 | -0.0643

Reference: the supplement of paper PMC7394473
